Data: patent publication US20120134940A1, “NANODISPERSIONS” (priority 2006, published 2012)

Conditions: payload material itself
From the text: By selection of a carrier which is also soluble in both DMSO and one of water, ethanol and PPG (for example PVP/HPC) it is possible to obtain a nano-disperse form of either payload material in the carrier, which can be “dissolved” in water, ethanol or PPG.

SMILES: COc1cc(C=O)cc(-c2cc(C=O)cc(OC)c2O)c1O [divanillin]
- solubility in DMSO: soluble
- solubility in water, ethanol and poly-propylene glycol: insoluble
